Data as given in patent publication US20250325534A1, “MICROBIOCIDAL TETRAHYDROISOQUINOLINE DERIVATIVES” (SYNGENTA CROP PROTECTION AG, priority 2021, published 2025).

Experiments:
Assay type in all cases: cell-based
[1] = system: Monographella nivalis; assay: Monographella nivalis (Microdochium nivale) / liquid culture (foot rot cereals); details: 96 h, photometrically 4-5 days after application, read-out: control of Monographella nivalis
Procedure: (§1) Example B10: Monographella nivalis (Microdochium nivale)/Liquid Culture (Foot Rot Cereals) Conidia of the fungus from cryogenic storage are directly mixed into a nutrient broth (potato dextrose broth). After placing a DMSO solution of test compound into a microtiter plate (96-well format), the nutrient broth containing the fungal spores is added. The test plates are incubated at 24° C. and the inhibition of growth is determined photometrically 4-5 days after application.

[2] = system: Mycosphaerella graminicola; assay: Mycosphaerella graminicola (Septoria tritici) / liquid culture (Septoria blotch); details: Zymoseptoria tritici, 96 h, photometrically 4-5 days after application, read-out: control of Mycosphaerella graminicola
Procedure: as §1, with “B19: Mycosphaerella graminicola (Septoria tritici)/Liquid” for “B10: Monographella nivalis (Microdochium nivale)/Liquid”, “(Septoria Blotch)” for “(Foot Rot Cereals)”

[3] = system: Mycosphaerella arachidis; assay: Mycosphaerella arachidis (Cercospora arachidicola) / liquid culture (early leaf spot); details: 96 h, photometrically 4-5 days after application, read-out: control of Mycosphaerella arachidis
Procedure: as §1, with “B11: Mycosphaerella arachidis (Cercospora arachidicola)/Liquid” for “B10: Monographella nivalis (Microdochium nivale)/Liquid”, “(Early Leaf Spot)” for “(Foot Rot Cereals)”

SMILES	inhibition of growth at 20 ppm [1] [%]	inhibition of growth at 20 ppm [2] [%]	inhibition of growth at 20 ppm [3] [%]
CC(=O)C1c2ccccc2C(c2cnn(C)c2)CN1C(=O)c1cc(-c2ccc(F)cc2F)on1 (centres unmarked) [Compound P-17, 1-[2-[5-(2,4-difluorophenyl)isoxazole-3-carbonyl]-4-(1-methylpyrazol-4-yl)-3,4-dihydro-1H-isoquinolin-1-yl]ethanone]	≥ 80	≥ 80	–
CC1c2ccc(OCC(F)F)cc2C(C)(c2cnn(C)c2)CN1C(=O)c1cc(-c2ccccc2)on1 (centres unmarked) [Compound P-26, [6-(2,2-difluoroethoxy)-1,4-dimethyl-4-(1-methylpyrazol-4-yl)-1,3-dihydroisoquinolin-2-yl]-(5-phenylisoxazol-3-yl)methanone]	–	≥ 80	≥ 80
CC1c2ccc(O)cc2C(C)(c2cnn(C)c2)CN1C(=O)c1cc(-c2ccc(F)cc2F)on1 (centres unmarked) [Compound P-35, [5-(2,4-difluorophenyl)isoxazol-3-yl]-[6-hydroxy-1,4-dimethyl-4-(1-methylpyrazol-4-yl)-1,3-dihydroisoquinolin-2-yl]methanone]	–	≥ 80	≥ 80
CCC1c2ccccc2C(c2cnn(C)c2)CN1C(=O)c1cc(-c2ccc(F)cc2F)on1 (centres unmarked) [Compound P-36, [5-(2,4-difluorophenyl)isoxazol-3-yl]-[1-ethyl-4-(1-methylpyrazol-4-yl)-3,4-dihydro-1H-isoquinolin-2-yl]methanone]	≥ 80	≥ 80	–
COc1ccc(-c2cc(C(=O)N3Cc4ccccc4C(c4cnn(C)c4)C3)no2)c(F)c1 (centres unmarked) [Compound P-74, [5-(2-fluoro-4-methoxy-phenyl)isoxazol-3-yl]-[4-(1-methylpyrazol-4-yl)-3,4-dihydro-1H-isoquinolin-2-yl]methanone]	≥ 80	–	–
Cc1cccc2c1CN(C(=O)c1cc(-c3ccc(F)cc3F)on1)CC2c1c(C)nn(C)c1C (centres unmarked) [Compound P-114, [5-(2,4-difluorophenyl)isoxazol-3-yl]-[8-methyl-4-(1,3,5-trimethylpyrazol-4-yl)-3,4-dihydro-1H-isoquinolin-2-yl]methanone]	–	≥ 80	≥ 80
Cc1nn(C)c(C)c1C1CN(C(=O)c2cc(-c3ccc(F)cc3F)on2)Cc2cccc(F)c21 (centres unmarked) [Compound P-123, [5-(2,4-difluorophenyl)isoxazol-3-yl]-[5-fluoro-4-(1,3,5-trimethylpyrazol-4-yl)-3,4-dihydro-1H-isoquinolin-2-yl]methanone]	–	≥ 80	≥ 80
Cc1ccc2c(c1)C(c1cnn(C)c1)CN(C(=O)c1cc(-c3ccccc3)on1)C2 (centres unmarked) [Compound P-137, [6-methyl-4-(1-methylpyrazol-4-yl)-3,4-dihydro-1H-isoquinolin-2-yl]-(5-phenylisoxazol-3-yl)methanone]	–	≥ 80	≥ 80
Cn1cc(C2CN(C(=O)c3ncc(-c4ccccc4)s3)Cc3ccccc32)cn1 (centres unmarked) [Compound P-156, [4-(1-methylpyrazol-4-yl)-3,4-dihydro-1H-isoquinolin-2-yl]-(5-phenylthiazol-2-yl)methanone]	≥ 80	≥ 80	–
Cn1cc(C2CN(C(=O)c3cc(-c4ccc(F)cc4)no3)Cc3ccccc32)cn1 (centres unmarked) [Compound P-160, [3-(4-fluorophenyl)isoxazol-5-yl]-[4-(1-methylpyrazol-4-yl)-3,4-dihydro-1H-isoquinolin-2-yl]methanone]	≥ 80	≥ 80	–
Cn1cc(C2CN(C(=O)c3cnc(-c4ccccc4)s3)Cc3ccccc32)cn1 (centres unmarked) [Compound P-164, [4-(1-methylpyrazol-4-yl)-3,4-dihydro-1H-isoquinolin-2-yl]-(2-phenylthiazol-5-yl)methanone]	≥ 80	≥ 80	–
Cn1cc(C2CN(C(=O)c3cc(C4CCCCC4)on3)Cc3ccccc32)cn1 (centres unmarked) [Compound P-177, (5-cyclohexylisoxazol-3-yl)-[4-(1-methylpyrazol-4-yl)-3,4-dihydro-1H-isoquinolin-2-yl]methanone]	≥ 80	≥ 80	–
Cn1cc(C2CN(C(=O)c3cc(C4(C)CC4)on3)Cc3ccccc32)cn1 (centres unmarked) [Compound P-184, [5-(1-methylcyclopropyl)isoxazol-3-yl]-[4-(1-methylpyrazol-4-yl)-3,4-dihydro-1H-isoquinolin-2-yl]methanone]	–	≥ 80	–
Cn1cc(C2CN(C(=O)c3cc(C(C)(C)C)on3)Cc3ccccc32)cn1 (centres unmarked) [Compound P-195, (5-tert-butylisoxazol-3-yl)-[4-(1-methylpyrazol-4-yl)-3,4-dihydro-1H-isoquinolin-2-yl]methanone]	–	≥ 80	–
Cn1cc(C2CN(C(=O)c3cc(-c4ccccc4Cl)on3)Cc3ccccc32)cn1 (centres unmarked) [Compound P-197, [5-(2-chlorophenyl)isoxazol-3-yl]-[4-(1-methylpyrazol-4-yl)-3,4-dihydro-1H-isoquinolin-2-yl]methanone]	≥ 80	≥ 80	–
Cn1cc(C2CN(C(=O)c3cc(C4CC4)on3)Cc3ccccc32)cn1 (centres unmarked) [Compound P-202, (5-cyclopropylisoxazol-3-yl)-[4-(1-methylpyrazol-4-yl)-3,4-dihydro-1H-isoquinolin-2-yl]methanone]	–	≥ 80	–
CC(C)C1(c2cnn(C)c2)CN(C(=O)c2cc(-c3ccc(F)cc3F)on2)Cc2ccccc21 (centres unmarked) [Compound P-219, [5-(2,4-difluorophenyl)isoxazol-3-yl]-[4-isopropyl-4-(1-methylpyrazol-4-yl)-1,3-dihydroisoquinolin-2-yl]methanone]	–	≥ 80	–
Cc1c(C2CN(C(=O)c3nnc(C4CC4)s3)Cc3ccccc32)cnn1C (centres unmarked) [Compound P-233, (5-cyclopropyl-1,3,4-thiadiazol-2-yl)-[4-(1,5-dimethylpyrazol-4-yl)-3,4-dihydro-1H-isoquinolin-2-yl]methanone]	–	≥ 80	–
Cc1c(C2CN(C(=O)c3cc(C4CCCC4)on3)Cc3ccccc32)cnn1C (centres unmarked) [Compound P-235, (5-cyclopentylisoxazol-3-yl)-[4-(1,5-dimethylpyrazol-4-yl)-3,4-dihydro-1H-isoquinolin-2-yl]methanone]	–	≥ 80	–
Cc1c(C2CN(C(=O)c3cc(C4CC4)on3)Cc3ccccc32)cnn1C (centres unmarked) [Compound P-237, (5-cyclopropylisoxazol-3-yl)-[4-(1,5-dimethylpyrazol-4-yl)-3,4-dihydro-1H-isoquinolin-2-yl]methanone]	–	≥ 80	–
CCc1nnc(C(=O)N2Cc3ccccc3C(c3cnn(C)c3C)C2)s1 (centres unmarked) [Compound P-244, [4-(1,5-dimethylpyrazol-4-yl)-3,4-dihydro-1H-isoquinolin-2-yl]-(5-ethyl-1,3,4-thiadiazol-2-yl)methanone]	–	≥ 80	–
CC(C)C1(c2cnn(C)c2)CN(C(=O)c2cc(-c3ccc(F)cc3F)on2)Cc2ccccc21 (centres unmarked) [Compound P-246, [5-(2,4-difluorophenyl)isoxazol-3-yl]-[4-isopropyl-4-(1-methylpyrazol-4-yl)-1,3-dihydroisoquinolin-2-yl]methanone]	≥ 80	–	–
CCC1(c2cnn(C)c2)CN(C(=O)c2cc(-c3ccc(F)cc3F)on2)Cc2ccccc21 (centres unmarked) [Compound P-248, [5-(2,4-difluorophenyl)isoxazol-3-yl]-[4-ethyl-4-(1-methylpyrazol-4-yl)-1,3-dihydroisoquinolin-2-yl]methanone]	≥ 80	–	–
